According to patent publication US20170087174A1, “COMBINATION THERAPY REGIMEN FOR TREATMENT OF HCV” (JANSSEN PHARMACEUTICALS, INC., priority 2015, published 2017):
Read-outs that look alike come from different tables or passages of the source.

Columns and labels:
[1] = tested on: CYP (cytochrome P450 enzymes); assay: CYP inhibition in vitro
[2] = Phase-1 drug-drug interaction study in healthy volunteers (Compound (III) 800 mg, SMV 150 mg, Odalasvir 150 mg loading then 50 mg, once daily): plasma PK; assay type: in vivo, human; conditions: both sexes, human, in vivo; for AUC0-24: read-out: AUC0-24; for Cmax: read-out: Cmax
Description: The following daily doses were employed:

P-gp = P-gp (Homo sapiens, UniProt P08183); conditions: in vitro; cited from earlier work
BCRP = molecular target: T1, BCRP (Homo sapiens, UniProt Q9UNQ0); conditions: in vitro; cited from earlier work
T1 sequence (Q9UNQ0 1-655): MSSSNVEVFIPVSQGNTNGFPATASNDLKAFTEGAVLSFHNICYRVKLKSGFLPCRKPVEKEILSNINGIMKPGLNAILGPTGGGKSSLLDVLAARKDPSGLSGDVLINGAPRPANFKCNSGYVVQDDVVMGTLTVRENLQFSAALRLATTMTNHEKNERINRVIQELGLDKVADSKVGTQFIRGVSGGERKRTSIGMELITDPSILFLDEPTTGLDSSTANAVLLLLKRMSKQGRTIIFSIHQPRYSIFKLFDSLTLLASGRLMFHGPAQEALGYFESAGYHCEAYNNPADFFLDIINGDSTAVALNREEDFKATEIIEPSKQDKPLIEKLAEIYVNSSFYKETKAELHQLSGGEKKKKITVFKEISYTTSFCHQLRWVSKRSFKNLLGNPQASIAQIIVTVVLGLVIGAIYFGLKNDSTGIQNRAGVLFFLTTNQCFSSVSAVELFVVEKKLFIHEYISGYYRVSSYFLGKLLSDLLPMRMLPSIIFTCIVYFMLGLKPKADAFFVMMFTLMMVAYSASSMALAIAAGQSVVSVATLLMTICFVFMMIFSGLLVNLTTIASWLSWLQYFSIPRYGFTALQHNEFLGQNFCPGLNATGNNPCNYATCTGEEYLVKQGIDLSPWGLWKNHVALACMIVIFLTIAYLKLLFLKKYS

[3] = PK of single agents vs fixed dose combinations (FDC), single oral dose in healthy volunteers; assay type: in vivo, human; conditions: for Cmax: read-out: Cmax (mean ± SD); for AUC(0-t): read-out: AUClast (mean ± SD); for AUC(0-inf): read-out: AUC∞ (mean ± SD)
Protocol: SMV (100 mg), ODV (50 mg), and Compound (III) (800 mg) were administered as three different formulations or together as single doses in vivo to healthy volunteers. The arms of the study included: • Arm 1 (Reference Arm): Single oral doses of single agents, one SMV 100-mg capsule, one ODV 50-mg tablet as granule layered solid dispersion with copovidone and poloxamers, and two Compound (III) 400-mg tablets, administered together. • Arm 2: Single oral dose of fixed dose combination (FDC02): SMV 100 mg+ODV 50 mg as a spray dried solid dispersion with HPMC-AS L in a ratio ODV/HPMC-AS L 1/1 w/w+Compound (III) 800 mg • Arm 3: Single oral dose of fixed dose combination (FDC04): SMV 100 mg+ODV 50 mg as a spray dried solid dispersion with HPMC-AS L in a ratio ODV/HPMC-AS L 1/3 w/w+Compound (III) 800 mg • Arm 4: Single oral dose of fixed dose combination (FDC01): SMV 100 mg+ODV 50 mg as a spray dried solid dispersion with copovidone and poloxamers+Compound (III) 800 mg
PK parameters, including Cmax, tmax, AUClast, and AUC∞ were measured for Compound (III), ODV, SMV, and metabolites Compound A-I and Compound A-3 for each Arm of the study. Arms that included fixed dose combinations (FDC) (Arm 2, Arm 3, and Arm 4) were then compared to a single oral dose (Arm 1, the reference Arm). Table 9, Table 10, Table 11, Table 12 and Table 13 display relevant PK parameters and FIG. 9, FIG. 10, FIG. 11, FIG. 12, and FIG. 13 depict the plasma concentration over time of SMV, ODV, Compound A-1, and Compound A-3 for each Arm of the study.

OATP1B1 = molecular target: T2, OATP1B1 (Homo sapiens, UniProt Q9Y6L6); conditions: in vitro; cited from earlier work
T2 sequence (Q9Y6L6 1-691): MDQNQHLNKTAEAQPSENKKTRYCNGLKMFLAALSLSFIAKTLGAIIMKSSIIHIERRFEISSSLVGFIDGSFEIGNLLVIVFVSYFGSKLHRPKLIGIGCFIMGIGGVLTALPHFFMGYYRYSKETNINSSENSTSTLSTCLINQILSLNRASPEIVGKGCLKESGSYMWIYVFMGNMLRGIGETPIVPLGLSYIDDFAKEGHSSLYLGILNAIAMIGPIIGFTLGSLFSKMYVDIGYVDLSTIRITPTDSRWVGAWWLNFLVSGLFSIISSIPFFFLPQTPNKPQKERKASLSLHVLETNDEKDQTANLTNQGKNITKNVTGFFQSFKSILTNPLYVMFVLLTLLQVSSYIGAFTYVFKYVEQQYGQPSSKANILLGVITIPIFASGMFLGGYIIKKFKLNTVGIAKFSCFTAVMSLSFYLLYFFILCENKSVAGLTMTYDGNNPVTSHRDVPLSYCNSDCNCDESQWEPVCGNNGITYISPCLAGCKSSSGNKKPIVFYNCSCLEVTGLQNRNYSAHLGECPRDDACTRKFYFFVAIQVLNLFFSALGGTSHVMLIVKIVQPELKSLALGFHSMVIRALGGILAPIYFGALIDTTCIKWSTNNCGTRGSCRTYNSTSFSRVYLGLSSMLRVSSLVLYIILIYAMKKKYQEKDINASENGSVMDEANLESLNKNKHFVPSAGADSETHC

[4] = Group 1, Day 3, Compound (III) alone
[5] = Group 1, Day 13 (Compound (III) + SMV)
[6] = Group 1, Day 23 (Compound (III) + SMV + ODV)
[7] = Group 2, Day 3 (Compound (III) alone)
[8] = Group 2, Day 13 (Compound (III) + SMV)
[9] = Group 2, Day 23 (Compound (III) + SMV + ODV)
[10] = Arm 2 (FDC02) vs reference (Arm 1)
[11] = Arm 3 (FDC04) vs reference (Arm 1)
[12] = Arm 4 (FDC01) vs reference (Arm 1)
[13] = human, in vivo, Arm 1 (reference): single agents together

P-gp, sequence (P08183 whole entry): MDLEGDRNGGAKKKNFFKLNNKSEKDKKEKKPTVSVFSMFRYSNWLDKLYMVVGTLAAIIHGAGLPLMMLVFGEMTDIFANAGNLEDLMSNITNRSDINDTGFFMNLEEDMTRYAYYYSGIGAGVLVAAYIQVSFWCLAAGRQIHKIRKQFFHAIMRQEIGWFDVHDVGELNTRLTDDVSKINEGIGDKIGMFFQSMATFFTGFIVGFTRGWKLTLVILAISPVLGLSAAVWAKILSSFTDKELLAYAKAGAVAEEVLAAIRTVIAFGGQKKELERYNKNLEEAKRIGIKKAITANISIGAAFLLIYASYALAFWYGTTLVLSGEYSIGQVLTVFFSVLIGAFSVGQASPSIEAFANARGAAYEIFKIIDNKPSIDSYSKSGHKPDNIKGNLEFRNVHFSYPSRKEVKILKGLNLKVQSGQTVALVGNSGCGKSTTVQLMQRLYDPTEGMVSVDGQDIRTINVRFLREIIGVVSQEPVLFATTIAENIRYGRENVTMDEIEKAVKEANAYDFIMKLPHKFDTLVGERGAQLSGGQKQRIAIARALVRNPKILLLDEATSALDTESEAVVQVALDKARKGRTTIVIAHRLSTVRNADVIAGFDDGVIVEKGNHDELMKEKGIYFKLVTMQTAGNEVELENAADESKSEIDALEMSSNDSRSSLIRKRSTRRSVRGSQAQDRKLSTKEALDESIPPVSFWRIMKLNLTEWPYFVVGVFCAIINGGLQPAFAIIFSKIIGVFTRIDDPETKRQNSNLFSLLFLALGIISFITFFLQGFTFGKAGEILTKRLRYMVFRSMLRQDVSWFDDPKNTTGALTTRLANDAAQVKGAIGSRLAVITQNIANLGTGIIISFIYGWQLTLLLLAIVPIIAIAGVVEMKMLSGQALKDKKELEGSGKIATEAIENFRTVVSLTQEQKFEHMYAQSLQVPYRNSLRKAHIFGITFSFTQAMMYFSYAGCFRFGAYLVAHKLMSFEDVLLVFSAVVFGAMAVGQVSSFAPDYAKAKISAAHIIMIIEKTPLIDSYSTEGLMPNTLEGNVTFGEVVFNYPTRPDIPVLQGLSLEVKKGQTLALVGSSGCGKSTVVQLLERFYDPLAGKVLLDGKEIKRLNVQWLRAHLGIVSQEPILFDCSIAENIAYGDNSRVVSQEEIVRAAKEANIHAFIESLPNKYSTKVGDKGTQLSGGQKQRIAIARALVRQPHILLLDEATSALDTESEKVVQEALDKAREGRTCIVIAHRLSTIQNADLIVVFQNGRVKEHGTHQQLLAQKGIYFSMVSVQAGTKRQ

With CC(C)OC(=O)[C@H](C)N[P@](=O)(OC[C@@]1(F)O[C@@H](n2ccc(=O)[nH]c2=O)[C@](C)(O)[C@@H]1O)Oc1ccccc1 [Compound (III), isopropyl ((S)-(((2S,3S,4R,5R)-5-(2,4-dioxo-3,4-dihydropyrimidin-1 (2H)-yl)-2-fluoro-3,4-dihydroxy-4-methyltetrahydrofuran-2-yl)methoxy)(phenoxy)phosphoryl)-L-alaninate] the IC50 [1] was over 26 µM, the “CYP inhibition potential (in words)” value ([1]; on any CYP) was “limited CYP inhibition potential” and the AUC0-24 [2, 4] was 292 ng·h/mL. The Cmax [2, 4] was 162 ng/mL, the AUC0-24 [2, 5] was 1000 ng·h/mL and the Cmax [2, 5] was 376 ng/mL. For the same compound, the AUC0-24 [2, 6] was 2090 ng·h/mL, the Cmax [2, 6] was 747 ng/mL and the AUC0-24 [2, 7] was 325 ng·h/mL. It also gave a Cmax [2, 7] of 151 ng/mL, an AUC0-24 [2, 8] of 1300 ng·h/mL and a Cmax [2, 8] of 516 ng/mL. For the same compound, the AUC0-24 [2, 9] was 2910 ng·h/mL, the Cmax [2, 9] was 950 ng/mL and the “P-gp inhibition (in words)” value (P-gp) was “no in vitro inhibition”. The “BCRP inhibition (in words)” value (BCRP) was “no in vitro inhibition”, the “t1/2term (mean ± SD)” value ([3]; Arm 1 (reference): single agents together) was 36 ± 6 min and the “Least Square Means Ratio, AUClast” value [3, 10] was 110.22%. For the same compound, the “Least Square Means Ratio, AUC∞” value [3, 10] was 111.86%, the “Least Square Means Ratio, Cmax” value [3, 10] was 109.68% and the “t1/2term (mean ± SD)” value ([3]; Arm 2: FDC02) was 42 ± 12 min. The “tmax (median [range])” value ([3]; Arm 2: FDC02) was 2.00 (0.50-4.00) h, the “Least Square Means Ratio, AUClast” value [3, 11] was 127.06% and the “Least Square Means Ratio, AUC∞” value [3, 11] was 138.97%. For the same compound, the “Least Square Means Ratio, Cmax” value [3, 11] was 122.40%, the “t1/2term (mean ± SD)” value ([3]; Arm 3: FDC04) was 42 ± 6 min and the “tmax (median [range])” value ([3]; Arm 3: FDC04) was 2.00 (1.00-4.00) h. For the same compound, the “Least Square Means Ratio, AUClast” value [3, 12] was 151.72%, the “Least Square Means Ratio, AUC∞” value [3, 12] was 144.80% and the “Least Square Means Ratio, Cmax” value [3, 12] was 145.56%. The “t1/2term (mean ± SD)” value ([3]; Arm 4: FDC01) was 36 ± 6 min, the “tmax (median [range])” value ([3]; Arm 4: FDC01) was 2.00 (1.00-4.00) h and the Cmax ([3]; human, in vivo, Arm 1 (reference): single agents together, SMV 100-mg capsule, ODV 50-mg tablet, two Compound (III) 400-mg tablets) was 484 ± 177 ng/mL. The AUC(0-t) [3, 13] was 1160 ± 497 ng·h/mL, the AUC(0-inf) [3, 13] was 1180 ± 524 ng·h/mL and the Tmax ([3]; human, in vivo, Arm 1 (reference): single agents together, read-out: tmax (median [range])) was 120 min. It also gave a Cmax ([3]; human, in vivo, Arm 2: FDC02, SMV 100 mg + ODV 50 mg (ODV/HPMC-AS L 1/1 w/w) + Compound (III) 800 mg) of 544 ± 225 ng/mL, an AUC(0-t) ([3]; human, in vivo, Arm 2: FDC02) of 1260 ± 411 ng·h/mL and an AUC(0-inf) ([3]; human, in vivo, Arm 2: FDC02) of 1300 ± 420 ng·h/mL. It also gave a Cmax ([3]; human, in vivo, Arm 3: FDC04, SMV 100 mg + ODV 50 mg (ODV/HPMC-AS L 1/3 w/w) + Compound (III) 800 mg) of 617 ± 295 ng/mL, an AUC(0-t) ([3]; human, in vivo, Arm 3: FDC04) of 1440 ± 450 ng·h/mL and an AUC(0-inf) ([3]; human, in vivo, Arm 3: FDC04) of 1580 ± 434 ng·h/mL. It also gave a Cmax ([3]; human, in vivo, Arm 4: FDC01, SMV 100 mg + ODV 50 mg (copovidone and poloxamers) + Compound (III) 800 mg) of 745 ± 381 ng/mL, an AUC(0-t) ([3]; human, in vivo, Arm 4: FDC01) of 1830 ± 866 ng·h/mL and an AUC(0-inf) ([3]; human, in vivo, Arm 4: FDC01) of 1790 ± 889 ng·h/mL. For the same compound, the “OATP1B1 inhibition (in words)” value (OATP1B1) was “no in vitro inhibition”.
